Measured values: patent US20220125876A1, “A METHOD OF IMMUNE MODULATION BY MODULATING ABCF1” (Pacific Myco Biosciences, Ltd., priority 2019, published 2022)
“Also recorded” adds a separate entry of the source.

Key:
[1] = test system: ABCF1; assay: Polyubiquitination state of ABCF1 in BMDM (immunoprecipitation with anti-ABCF1, immunoblot with anti-polyubiquitin antibodies); format: cell-based, mouse
[2] = target: T1, ubiquitin (Homo sapiens, UniProt P0CG48); assay: In vitro ubiquitination assay; format: biochemical, mouse; settings: with UBA1 (E1), Mg2+ and ATP, DTT sensitive
T1 construct: recombinant ABCF1, UBA1, and Ub proteins were incubated in the presence of cofactors; purchased abcam ab139467; host or cells: ubiquitin and E1 from the kit; ABCF1 immunoprecipitated from transfected mouse BMDM
Description: In vitro ubiquitination Assay: Abcf1WT and Abcf1C647S expression plasmids were overexpressed in macrophages as described above. Before overexpressing Abcf1C647S expression plasmid, cells were treated with Abcf1 siRNA, as described above to eliminate endogenous Abcf1 levels. Abcf1 siRNA treated cells were washed with cold PBS twice and then Abcf1C647S expression plasmid was overexpressed. Cell lysates were prepared and subjected to co-immunoprecipitation with anti ABCF1 antibody. Extend of overexpression and co-immunoprecipitation was checked by western blot. Ubiquitination Assay was performed on immunoprecipitated samples with Ubiquitylation Assay Kit (abcam; ab139467) according to manufacturer's instructions. Samples were run on a gel and blotted with anti ABCF1 and anti UB antibodies.
To confirm the finding, enzyme activity of ABCF1 was investigated in presence and absence of cofactor Mg^2+ and ATP via an in vitro ubiquitination assay. […] As thio-ester bonds mediate ubiquitin attachment to the E2 enzyme and are DTT sensitive, no such protein band was observed when samples were treated with DTT.
To confirm if the conserved cysteine at position 647 in the ABCF1 sequence is the catalytic cysteine that mediates the E2 function, in vitro ubiquitination assay was performed with Abcf1 WT and Abcf1 C647S (where the cysteine was mutated to a serine) protein constructs. […]

[3] = test system: bone marrow derived macrophages (BMDM); assay: Immunoblotting of BMDM lysates for protein expression and phosphorylation; format: cell-based, mouse
Description: (§1) Western blotting: Cell lysates were prepared as described above. All co-immunoprecipitation samples were prepared without DTT in the sample buffer, unless otherwise mentioned. All other western blot samples were prepared with DTT in the sample buffer. Lysates were electrophoresed and immunoblotted with indicated antibodies.
Cytoplasmic and Nuclear fractionation: Bone marrow macrophages were stimulated with mentioned treatments and cytoplasmic and nuclear fractionation was performed with NE-PER Nuclear and Cytoplasmic Extraction Reagents (Thermo Scientific; 78833) according to manufacturer's instructions.
as §1, with “Cell” for “Western blotting: Cell”
Bone marrow macrophages were stimulated with indicated treatments and cytoplasmic and nuclear fractionation was performed with NE-PER Nuclear and Cytoplasmic Extraction Reagents (Thermo Scientific; 78833) according to manufacturer's instructions.

[4] = test system: ABCF1; settings: cited from earlier work
[5] = LPS (100 ng/ml) 30 min, SM 100 nM, Dynasore 80 μM
[6] = BMDMs treated with recombinant cytokine for 24 hours (TNFα 10 ng/ml, IL-1β 10 ng/ml, IL-10 50 ng/ml, IFNβ 10,000 IU/50 μl)
[7] = induction of hypoxia, CoCl2 100 μM for 24 hours

Molecule: O=C(N/N=C/c1ccc(O)c(O)c1)c1cc2ccccc2cc1O [Dynasore]
- polyubiquitin linkage of ABCF1 ([1]; Dynasore treatment alone): led to K48-polyubiquitination
- K48-polyubiquitination of ABCF1 [1, 5]: targeted for K48-polyubiquitination; also recorded: extensively upregulated
- K63-polyubiquitination of ABCF1 [1, 5]: no K63-polyubiquitination was observed; also recorded: greatly reduced

Molecule: recombinant ABCF1: recombinant ABCF1 protein used in the in vitro ubiquitination assay
- mass / apparent molecular weight shift of ABCF1 (Ub thioester attachment) [2]: increase in mass size; also recorded: increase in the apparent molecular weight

Molecule: CN[C@@H](C)C(=O)N[C@H](C(=O)N1CCC[C@H]1Cn1nnnc1Sc1ccccc1)C(C)OCC#CC#CCO[C@H](C)[C@H](NC(=O)[C@H](C)NC)C(=O)N1CCCC1Cn1nnnc1Sc1ccccc1 (stereo partly shown) [SM]
- K63-polyubiquitination of ABCF1 [1, 5]: increased
- polyubiquitin linkage of ABCF1 ([1]; LPS treatment for 10 minutes): K63-polyubiquitination of ABCF1 instead

Molecule: TNFα
- ABCF1 expression [3, 6]: decreased

Molecule: [Cl][Co][Cl] [CoCl2, Cobalt Chloride]
- ABCF1 expression [3, 7]: decreased
- HIF-1α expression [3, 7]: increased

Molecule: CN(C)CCC[C@@]1(c2ccc(F)cc2)OCc2cc(C#N)ccc21 [Escitalopram]
- effect on ABCF1 pathway [4]: known enhancer of the ABCF1 pathway

B1: IL-1β: recombinant IL-1β (10 ng/ml) used to treat BMDMs (protein, UniProt P10749 118-269, looked up)
Interleukin-1 beta: VPIRQLHYRLRDEQQKSLVLSDPYELKALHLNGQNINQQVIFSMSFVQGEPSNDKIPVALGLKGKNLYLSCVMKDGTPTLQLESVDPKQYPKKKMEKRFVFNKIEVKSKVEFESAEFPNWYISTSQAEHKPVFLGNNSGQDIIDFTMESVSS
- ABCF1 expression [3, 6]: decreased

B2: IL-10: recombinant IL-10 (50 ng/ml) used to treat BMDMs (protein, UniProt P18893 19-178, looked up)
Interleukin-10: SRGQYSREDNNCTHFPVGQSHMLLELRTAFSQVKTFFQTKDQLDNILLTDSLMQDFKGYLGCQALSEMIQFYLVEVMPQAEKHGPEIKEHLNSLGEKLKTLRMRLRRCHRFLPCENKSKAVEQVKSDFNKLQDQGVYKAMNEFDIFINCIEAYMMIKMKS
- ABCF1 expression [3, 6]: increased

B3: IFNβ: recombinant IFNβ (10,000 IU/50 μl) used to treat BMDMs (protein, UniProt P01575 22-182, looked up)
Interferon beta: INYKQLQLQERTNIRKCQELLEQLNGKINLTYRADFKIPMEMTEKMQKSYTAFAIQEMLQNVFLVFRNNFSSTGWNETIVVRLLDELHQQTVFLKTVLEEKQEERLTWEMSSTALHLKSYYWRVQRYLKLMKYNSYAWMVVRAEIFRNFLIIRRLTRNFQN
- ABCF1 expression [3, 6]: increased
